Experimental data: ChEMBL document CHEMBL1687769, “High cefepime plasma concentrations and neurological toxicity in febrile neutropenic patients with mild impairment of renal function” (Antimicrob Agents Chemother, 2010)

Key:
[1] = Cmin in febrile neutropenic patient with GFR of <40 ml/min at 2 g administered as 30 mins infusion every 8 hrs measured after 4 days by HPLC analysis; type: ADME, organism-based; settings: human, in vivo, iv, read-out: Cmin
[2] = Cmin in febrile neutropenic patient with neurological disorder at 2 g administered as 30 mins infusion every 8 hrs measured after 4 days by HPLC analysis; type: ADME, organism-based; settings: human, in vivo, iv, read-out: Cmin
Homo sapiens [3] = test: Neurotoxicity in febrile neutropenic patient assessed as myoclonia at 2 g administered as 30 mins infusion every 8 hrs; type: toxicity, organism-based; settings: in vivo, iv
Homo sapiens [4] = test: Neurotoxicity in febrile neutropenic patient assessed as confusion at 2 g administered as 30 mins infusion every 8 hrs; type: toxicity, organism-based; settings: in vivo, iv
Homo sapiens [5] = test: Neurotoxicity in febrile neutropenic patient assessed as hallucinations at 2 g administered as 30 mins infusion every 8 hrs; type: toxicity, organism-based; settings: in vivo, iv

## CO/N=C(\C(=O)N[C@@H]1C(=O)N2C(C(=O)[O-])=C(C[N+]3(C)CCCC3)CS[C@H]12)c1csc(N)n1 [CEFEPIME]
[1]
  concentration at 4 days: 11.4 µg/mL
[2]
  concentration at 4 days: 28 µg/mL
Homo sapiens [3]
  Activity: Toxic
Homo sapiens [4]
  Activity: Toxic
Homo sapiens [5]
  Activity: Toxic
